Data as given in US8088801B2, “Aryloazol-2-yl cyanoethylamino compounds, method of making and method of using thereof” (Merial Limited, priority 2007, dated 2012).

Tested on: Haemonchus contortus
Assay: Method A: screening against Haemonchus contortus, L1 larvae in microtitre plate
Details: 96 h, 4 days assessment, read-out: motility inhibition; for inhibition at 0.15 ppm: test concentration 0.15 ppm; for inhibition at 0.04 ppm: test concentration 0.04 ppm; for inhibition at 0.0025 ppm: test concentration 0.0025 ppm; for inhibition at 0.01 ppm: test concentration 0.01 ppm
Excerpt: Method A: Screening Method to Test Activity of Compounds Against Haemonchus contortus.

Compound: CC(C#N)(Cn1nc2ccc(Cl)cc2n1)NC(=O)c1ccc(C(F)(F)F)cc1 (centres unmarked) [Compound 1.002, N-[2-(5-Chloro-2H-benzotriazol-2-yl)-1-cyano-1-methylethyl]-4-trifluoromethylbenzamide]
- inhibition at 0.15 ppm: ≥ 90%

Compound: Cc1ccc2nn(CC(C)(C#N)NC(=O)c3ccc(OC(F)(F)F)cc3)nc2c1 (centres unmarked) [Compound 1.006, N-[1-Cyano-1-methyl-2-(5-methyl-2H-benzotriazol-2-yl)ethyl]-4-trifluoromethoxybenzamide]
- inhibition at 0.15 ppm: ≥ 90%

Compound: CC(C#N)(Cn1nc2cc(Cl)c(Cl)cc2n1)NC(=O)c1ccc(OC(F)(F)F)cc1 (centres unmarked) [Compound 1.010, N-[1-Cyano-2-(5,6-dichloro-2H-benzotriazol-2-yl)-1-methylethyl]-4-trifluoromethoxybenzamide]
- inhibition at 0.15 ppm: ≥ 90%

Compound: CC(C#N)(Cn1nc2cc(C(F)(F)F)cc(C(F)(F)F)c2n1)NC(=O)c1ccc(OC(F)(F)F)cc1 (centres unmarked) [Compound 1.018, N-[2-(4,6-Bis(trifluoromethyl)-2H-benzotriazol-2-yl)-1-cyano-1-methylethyl]-4-trifluoromethoxybenzamide]
- inhibition at 0.15 ppm: ≥ 90%

Compound: CC(C#N)(Cn1nc2cc(Cl)cc(Cl)c2n1)NC(=O)c1ccc(S(=O)(=O)C(F)(F)F)cc1 (centres unmarked) [Compound 1.025, N-[1-Cyano-2-(4,6-dichloro-2H-benzotriazol-2-yl)-1-methylethyl]-4-trifluoromethylsulfonylbenzamide]
- inhibition at 0.15 ppm: ≥ 90%

Compound: CC(C#N)(Cn1nc2ccc(Cl)cc2n1)NC(=O)c1ccc(S(=O)(=O)C(F)(F)F)cc1 (centres unmarked) [Compound 1.031, N-[2-(5-Chloro-2H-benzotriazol-2-yl)-1-cyano-1-methylethyl]-4-trifluoromethylsulfonylbenzamide]
- inhibition at 0.15 ppm: ≥ 90%

Compound: CC(C#N)(Cn1nc2ccc(Cl)cc2n1)NC(=O)c1ccc(Oc2ccccc2)cc1 (centres unmarked) [Compound 1.032, N-[2-(5-Chloro-2H-benzotriazol-2-yl)-1-cyano-1-methylethyl]-4-phenoxybenzamide]
- inhibition at 0.04 ppm: ≥ 90%

Compound: CC(C#N)(Cn1nc2cccc(Cl)c2n1)NC(=O)c1ccc(Oc2ccccc2)cc1 (centres unmarked) [Compound 1.045, N-[2-(4-Chloro-2H-benzotriazol-2-yl)-1-cyano-1-methylethyl]-4-phenoxybenzamide]
- inhibition at 0.15 ppm: ≥ 90%

Compound: CC(C#N)(Cn1nc2cc(C(F)(F)F)cc(C#N)c2n1)NC(=O)c1ccc(OC(F)(F)F)cc1 (centres unmarked) [Compound 1.054, N-[1-Cyano-2-(4-cyano-6-trifluoromethyl-2H-benzotriazol-2-yl)-1-methylethyl]-4-trifluoromethoxybenzamide]
- inhibition at 0.15 ppm: ≥ 90%

Compound: CC(C#N)(Cn1nc2ccc(Cl)c(Br)c2n1)NC(=O)c1ccc(OC(F)(F)F)cc1 (centres unmarked) [Compound 1.057, N-[2-(4-Bromo-5-chloro-2H-benzotriazol-2-yl)-1-cyano-1-methylethyl]-4-trifluoromethoxybenzamide]
- inhibition at 0.04 ppm: ≥ 90%

Compound: CC(C#N)(Cn1nc2cc(Cl)cc(Br)c2n1)NC(=O)c1ccc(OC(F)(F)F)cc1 (centres unmarked) [Compound 1.060, N-[2-(4-Bromo-6-chloro-2H-benzotriazol-2-yl)-1-cyano-1-methylethyl]-4-trifluoromethoxybenzamide]
- inhibition at 0.04 ppm: ≥ 90%

Compound: CSCC(C#N)(Cn1nc2ccc(Cl)cc2n1)NC(=O)c1ccc(OC(F)(F)F)cc1 (centres unmarked) [Compound 1.061, N-[2-(5-Chloro-2H-benzotriazol-2-yl)-1-cyano-1-(methylthiomethyl)ethyl]-4-trifluoromethoxybenzamide]
- inhibition at 0.15 ppm: ≥ 90%

Compound: CC(C#N)(Cn1nc2cc(Cl)cc(C#N)c2n1)NC(=O)c1ccc(OC(F)(F)F)cc1 (centres unmarked) [Compound 1.067, N-[2-(6-Chloro-4-cyano-2H-benzotriazol-2-yl)-1-cyano-1-methylethyl]-4-trifluoromethoxybenzamide]
- inhibition at 0.04 ppm: ≥ 90%

Compound: C=Cc1cc(Cl)cc2nn(CC(C)(C#N)NC(=O)c3ccc(OC(F)(F)F)cc3)nc12 (centres unmarked) [Compound 1.075, N-[2-(6-Chloro-4-vinyl-2H-benzotriazol-2-yl)-1-cyano-1-methylethyl]-4-trifluoromethoxybenzamide]
- inhibition at 0.04 ppm: ≥ 90%

Compound: CC(C#N)(Cn1nc2cc(Cl)cc(C(F)CF)c2n1)NC(=O)c1ccc(OC(F)(F)F)cc1 (centres unmarked) [Compound 1.078, N-{2-[6-Chloro-4-(1,2-difluoroethyl)-2H-benzotriazol-2-yl]-1-cyano-1-methyl-ethyl}-4-trifluoromethoxybenzamide]
- inhibition at 0.04 ppm: ≥ 90%

Compound: CC(C#N)(Cn1nc2cc(Cl)cc(C=O)c2n1)NC(=O)c1ccc(OC(F)(F)F)cc1 (centres unmarked) [Compound 1.079, N-[2-(6-Chloro-4-formyl-2H-benzotriazol-2-yl)-1-cyano-1-methylethyl]-4-trifluoromethoxybenzamide]
- inhibition at 0.15 ppm: ≥ 90%

Compound: CC(C#N)(Cn1nc2cc(Cl)cc(CO)c2n1)NC(=O)c1ccc(OC(F)(F)F)cc1 (centres unmarked) [Compound 1.081, N-[2-(6-Chloro-4-hydroxymethyl-2H-benzotriazol-2-yl)-1-cyano-1-methylethyl]-4-trifluoromethoxybenzamide]
- inhibition at 0.15 ppm: ≥ 90%

Compound: CC(C#N)(Cn1nc2c(Br)cc(Cl)c(Br)c2n1)NC(=O)c1ccc(OC(F)(F)F)cc1 (centres unmarked) [Compound 1.083, N-[2-(5-Chloro-4,7-dibromo-2H-benzotriazol-2-yl)-1-cyano-1-methylethyl]-4-trifluoromethoxybenzamide]
- inhibition at 0.0025 ppm: ≥ 90%

Compound: COC(=O)c1cc(Cl)cc2nn(CC(C)(C#N)NC(=O)c3ccc(OC(F)(F)F)cc3)nc12 (centres unmarked) [Compound 1.084, Methyl 6-chloro-2-[2-cyano-2-({[4-(trifluoromethoxy)phenyl]carbonyl}-amino)propyl]-2H-benzotriazole-4-carboxylate]
- inhibition at 0.15 ppm: ≥ 90%

Compound: CC(C#N)(Cn1nc2c(Cl)c(Br)c(Cl)c(Br)c2n1)NC(=O)c1ccc(OC(F)(F)F)cc1 (centres unmarked) [Compound 1.088, N-[1-Cyano-2-(4,6-dibromo-5,7-dichloro-2H-benzotriazol-2-yl)-1-methylethyl]-4-trifluoromethoxybenzamide]
- inhibition at 0.0025 ppm: ≥ 90%

Compound: Cc1cc(Cl)c(C)c2nn(CC(C)(C#N)NC(=O)c3ccc(OC(F)(F)F)cc3)nc12 (centres unmarked) [Compound 1.092, N-[2-(5-Chloro-4,7-dimethyl-2H-benzotriazol-2-yl)-1-cyano-1-methylethyl]-4-trifluoromethoxybenzamide]
- inhibition at 0.01 ppm: ≥ 90%

Compound: CC(C#N)(Cn1cc2cc(Cl)cc(Cl)c2n1)NC(=O)c1ccc(Oc2ccccc2)cc1 (centres unmarked) [Compound 2.004, N-[1-Cyano-2-(5,7-dichloro-2H-indazol-2-yl)-1-methylethyl]-4-phenoxybenzamide]
- inhibition at 0.15 ppm: ≥ 90%

Compound: Cc1cc(Cl)cc2cn(CC(C)(C#N)NC(=O)c3ccc(OC(F)(F)F)cc3)nc12 (centres unmarked) [Compound 2.006, N-[2-(5-Chloro-7-methyl-2H-indazol-2-yl)-1-cyano-1-methylethyl]-4-trifluoromethoxybenzamide]
- inhibition at 0.04 ppm: ≥ 90%

Compound: Cc1c2cc(Cl)cc(Cl)c2nn1CC(C)(C#N)NC(=O)c1ccc(OC(F)(F)F)cc1 (centres unmarked) [Compound 2.010, N-[1-Cyano-2-(5,7-dichloro-3-methyl-2H-indazol-2-yl)-1-methylethyl]-4-trifluoromethoxybenzamide]
- inhibition at 0.15 ppm: ≥ 90%

Compound: CCOc1c2cc(Cl)ccc2nn1CC(C)(C#N)NC(=O)c1ccc(OC(F)(F)F)cc1 (centres unmarked) [Compound 2.014, N-[2-(5-Chloro-3-ethoxy-2H-indazol-2-yl)-1-cyano-1-methylethyl]-4-trifluoromethoxybenzamide]
- inhibition at 0.01 ppm: ≥ 90%

Compound: COc1c2c(Cl)cc(Cl)cc2nn1CC(C)(C#N)NC(=O)c1ccc(OC(F)(F)F)cc1 (centres unmarked) [Compound 2.021, N-[1-Cyano-2-(4,6-dichloro-3-methoxy-2H-indazol-2-yl)-1-methylethyl]-4-trifluoromethoxybenzamide]
- inhibition at 0.04 ppm: ≥ 90%

Compound: COc1c2ccc(Br)cc2nn1CC(C)(C#N)NC(=O)c1ccc(OC(F)(F)F)cc1 (centres unmarked) [Compound 2.023, N-[2-(6-Bromo-3-methoxy-2H-indazol-2-yl)-1-cyano-1-methylethyl]-4-trifluoromethoxybenzamide]
- inhibition at 0.0025 ppm: ≥ 90%

Compound: COc1c2ccc(C(F)(F)F)cc2nn1CC(C)(C#N)NC(=O)c1ccc(OC(F)(F)F)cc1 (centres unmarked) [Compound 2.025, N-[1-Cyano-2-(3-methoxy-6-trifluoromethyl-2H-indazol-2-yl)-1-methylethyl]-4-trifluoromethoxybenzamide]
- inhibition at 0.0025 ppm: ≥ 90%

Compound: CCOc1c2ccc(Cl)cc2nn1CC(C)(C#N)NC(=O)c1ccc(OC(F)(F)F)cc1 (centres unmarked) [Compound 2.027, N-[2-(6-Chloro-3-ethoxy-2H-indazol-2-yl)-1-cyano-1-methylethyl]-4-trifluoromethoxybenzamide]
- inhibition at 0.01 ppm: ≥ 90%

Compound: COc1c2ccc([N+](=O)[O-])cc2nn1CC(C)(C#N)NC(=O)c1ccc(OC(F)(F)F)cc1 (centres unmarked) [Compound 2.033, N-[1-Cyano-2-(3-methoxy-6-nitro-2H-indazol-2-yl)-1-methylethyl]-4-trifluoromethoxybenzamide]
- inhibition at 0.15 ppm: ≥ 90%

Compound: CC(C#N)(Cn1nc2c(Cl)c(Cl)ccc2c1Cl)NC(=O)c1ccc(OC(F)(F)F)cc1 (centres unmarked) [Compound 2.039, N-[1-Cyano-1-methyl-2-(3,6,7-trichloro-2H-indazol-2-yl)ethyl]-4-trifluoromethoxybenzamide]
- inhibition at 0.01 ppm: ≥ 90%

Compound: CC(C#N)(Cn1nc2cc(Cl)ccc2c1Br)NC(=O)c1ccc(OC(F)(F)F)cc1 (centres unmarked) [Compound 2.042, N-[2-(3-Bromo-6-chloro-2H-indazol-2-yl)-1-cyano-1-methylethyl]-4-trifluoromethoxybenzamide]
- inhibition at 0.0025 ppm: ≥ 90%

Compound: CC(C#N)(Cn1nc2cc(Cl)ccc2c1Cl)NC(=O)c1ccc(OC(F)(F)F)cc1 (centres unmarked) [Compound 2.044, N-[1-Cyano-2-(3,6-dichloro-2H-indazol-2-yl)-1-methylethyl]-4-trifluoromethoxybenzamide]
- inhibition at 0.0025 ppm: ≥ 90%

Compound: CC(C#N)(Cn1cc2ccc(Cl)c(Cl)c2n1)NC(=O)c1ccc(OC(F)(F)F)cc1 (centres unmarked) [Compound 2.045, N-[1-Cyano-2-(6,7-dichloro-2H-indazol-2-yl)-1-methylethyl]-4-trifluoromethoxybenzamide]
- inhibition at 0.0025 ppm: ≥ 90%

Compound: Cc1c2ccc(Cl)cc2nn1CC(C)(C#N)NC(=O)c1ccc(OC(F)(F)F)cc1 (centres unmarked) [Compound 2.050, N-[2-(6-Chloro-3-methyl-2H-indazol-2-yl)-1-cyano-1-methylethyl]-4-trifluoromethoxybenzamide]
- inhibition at 0.0025 ppm: ≥ 90%
